Results published in PMC9917201, “Enhanced Antibacterial Activity of Substituted Derivatives of NCR169C Peptide” (International Journal of Molecular Sciences, 2023).
In brackets after ≈: the same amount, converted by molar mass. Like-named read-outs stand apart in the source and are kept apart here. Non-standard residues stand in square brackets, D forms with d. Residues, ends and D or L forms follow the SMILES beside them. ξ: configuration not given here. Trp(5-F) = N[C@@H](Cc1c[nH]c2ccc(F)cc12)C(=O)O; ξTrp(5-OMe) = COc1ccc2[nH]cc(CC(N)C(=O)O)c2c1; ξTrp(5-Me) = Cc1ccc2[nH]cc(CC(N)C(=O)O)c2c1

Assays:
Type in all cases: cell-based
[1] = tested on: tested bacteria (ESKAPE pathogens, Listeria monocytogenes, Salmonella enterica); settings: 3 h, pH 7.4
Description: (§1) The bacterial strains for the antimicrobial assay were obtained from the ATCC (American Type Culture Collection, Manassas, VA, USA) and NCTC (National Collection of Type Cultures, Salisbury, UK). Gram-negative strains were Pseudomonas aeruginosa (ATCC 27853), Escherichia coli (ATCC 8739, ATCC 35218, and ATCC 25922), Salmonella enterica (ATCC 13076), Klebsiella pneumoniae (NCTC 13440), Acinetobacter baumannii (ATCC 17978) and the Gram-positive strains were Enterococcus faecalis (ATCC 29212), Listeria monocytogenes (ATCC 19111), and Staphylococcus aureus (HNCMO112011 and ATCC 25923).
(§2) Determination of antibacterial activity for the peptides was carried out by utilizing a minimum bactericidal concentration (MBC) bioassay. Synthesized peptides were dissolved in sterile water and used from 25 to 0.125 μM in 2-fold dilution series and incubated with ~10^7 log phase bacteria in Potassium-Phosphate Buffer (PPB, pH: 7.4) for three hours as described earlier. After that, 5 μl of each sample was placed on LB agar and the growth of bacteria was monitored after overnight incubation at 37 °C. The lowest concentration of the antimicrobial agents that completely eliminated viable bacteria was considered the minimal bactericidal concentration (MBC).

[2] = tested on: Staphylococcus aureus (HNCMO112011); settings: HNCMO112011, 3 h, pH 7.4
Description: as §1, §2

[3] = tested on: Acinetobacter baumannii (ATCC 17978)
Description: as §1, §2

[4] = tested on: Escherichia coli (ATCC 8739); settings: ATCC 8739, 3 h, pH 7.4
Description: as §1, §2

[5] = tested on: Klebsiella pneumoniae (NCTC 13440); settings: NCTC 13440, 3 h, pH 7.4
Description: as §1, §2

[6] = tested on: Enterococcus faecalis (ATCC 29212)
Description: as §1, §2

[7] = tested on: Listeria monocytogenes (ATCC 19111); settings: ATCC 19111, 3 h, pH 7.4
Description: as §1, §2

[8] = tested on: Salmonella enterica (ATCC 13076); settings: ATCC 13076, 3 h, pH 7.4
Description: as §1, §2

[9] = tested on: Pseudomonas aeruginosa (ATCC 27853); settings: ATCC 27853, 3 h, pH 7.4
Description: as §1, §2

[10] = Acinetobacter baumannii ATCC 17978, ~10^7 log phase bacteria, 3 h in PPB pH 7.4, peptide 25 to 0.125 μM 2-fold series, plated on LB agar, overnight 37 °C

Row | Compound | MBC against most or all of the tested bacteria [1] | Minimal bactericidal concentration (MBC) S. a. [2] | Minimal bactericidal concentration (MBC) A. b. ([3]; ATCC 17978, 3 h, pH 7.4) | Minimal bactericidal concentration (MBC) E. c. [4] | Minimal bactericidal concentration (MBC) K. p. [5] | Minimal bactericidal concentration (MBC) E. f. ([6]; ATCC 29212, 3 h, pH 7.4) | Minimal bactericidal concentration (MBC) L. m. [7] | Minimal bactericidal concentration (MBC) S. e. [8] | Minimal bactericidal concentration (MBC) P. a. [9] | Minimal bactericidal concentration (MBC) E. f. ([6]; Enterococcus faecalis ATCC 29212, ~10^7 log phase bacteria, 3 h in potassium-phosphate buffer (PPB) pH 7.4, peptide 25 to 0.125 μM 2-fold series, 5 μl on LB agar, overnight 37 °C) | Minimal bactericidal concentration (MBC) A. b. [3, 10]
1 | CC[C@H](C)[C@H](NC(=O)[C@H](CCCCN)NC(=O)[C@H](Cc1ccccc1)NC(=O)[C@H](CC(C)C)NC(=O)[C@@H]1CCCN1C(=O)[C@H](CCCCN)NC(=O)[C@H](CCCCN)NC(=O)[C@H](CO)NC(=O)[C@@H](N)CCCCN)C(=O)NC(Cc1c[nH]c2ccc(OC)cc12)C(=O)N[C@@H](CCCCN)C(=O)N[C@@H](CO)C(=O)N[C@H](C(=O)N[C@@H](CCC(=O)O)C(=O)N[C@@H](CC(N)=O)C(=O)N[C@H](C(=O)N[C@@H](CO)C(=O)N[C@H](C(=O)N[C@@H](CC(C)C)C(=O)N[C@@H](Cc1c[nH]c2ccccc12)C(=O)N[C@@H](Cc1ccc(O)cc1)C(=O)N[C@@H](CCCCN)C(N)=O)C(C)C)C(C)C)C(C)C (stereo partly shown) [NCR169C17–38C12,17/S-10W^5-MeO I] (H-KSKKPLFKI[ξTrp(5-OMe)]KSVENVSVLWYK-NH2; N-terminus assumed) | 1.6 µM | 1.6 µM (≈ 4.38 µg/mL) | 1.6 µM (≈ 4.38 µg/mL) | 3.1 µM (≈ 8.49 µg/mL) | 1.6 µM (≈ 4.38 µg/mL) | 1.6 µM (≈ 4.38 µg/mL) | 1.6 µM (≈ 4.38 µg/mL) | 1.6 µM (≈ 4.38 µg/mL) | – | – | –
2 | CC[C@H](C)[C@H](NC(=O)[C@H](CCCCN)NC(=O)[C@H](Cc1ccccc1)NC(=O)[C@H](CC(C)C)NC(=O)[C@@H]1CCCN1C(=O)[C@H](CCCCN)NC(=O)[C@H](CCCCN)NC(=O)[C@H](CO)NC(=O)[C@@H](N)CCCCN)C(=O)N[C@@H](Cc1c[nH]c2ccccc12)C(=O)N[C@@H](CCCCN)C(=O)N[C@@H](CO)C(=O)N[C@H](C(=O)N[C@@H](CCC(=O)O)C(=O)N[C@@H](CC(N)=O)C(=O)N[C@H](C(=O)N[C@@H](CO)C(=O)N[C@H](C(=O)N[C@@H](CC(C)C)C(=O)N[C@@H](Cc1c[nH]c2ccc(F)cc12)C(=O)N[C@@H](Cc1ccc(O)cc1)C(=O)N[C@@H](CCCCN)C(N)=O)C(C)C)C(C)C)C(C)C [NCR169C17–38C12,17/S-20W^5-F-L] (H-KSKKPLFKIWKSVENVSVL[Trp(5-F)]YK-NH2; N-terminus assumed) | – | 1.6 µM (≈ 4.36 µg/mL) | 3.1 µM (≈ 8.45 µg/mL) | 3.1 µM (≈ 8.45 µg/mL) | 3.1 µM (≈ 8.45 µg/mL) | 3.1 µM (≈ 8.45 µg/mL) | 3.1 µM (≈ 8.45 µg/mL) | 3.1 µM (≈ 8.45 µg/mL) | 6.3 µM (≈ 17.2 µg/mL) | – | –
3 | CC[C@H](C)[C@H](NC(=O)[C@H](CCCCN)NC(=O)[C@H](Cc1ccccc1)NC(=O)[C@H](CC(C)C)NC(=O)[C@@H]1CCCN1C(=O)[C@H](CCCCN)NC(=O)[C@H](CCCCN)NC(=O)[C@H](CO)NC(=O)[C@@H](N)CCCCN)C(=O)N[C@@H](Cc1c[nH]c2ccccc12)C(=O)N[C@@H](CCCCN)C(=O)N[C@@H](CO)C(=O)N[C@H](C(=O)N[C@@H](CCC(=O)O)C(=O)N[C@@H](CC(N)=O)C(=O)N[C@H](C(=O)N[C@@H](CO)C(=O)N[C@H](C(=O)N[C@@H](CC(C)C)C(=O)NC(Cc1c[nH]c2ccc(C)cc12)C(=O)N[C@@H](Cc1ccc(O)cc1)C(=O)N[C@@H](CCCCN)C(N)=O)C(C)C)C(C)C)C(C)C (stereo partly shown) [NCR169C17–38C12,17/S-20W^5-Me II] (H-KSKKPLFKIWKSVENVSVL[ξTrp(5-Me)]YK-NH2; N-terminus assumed) | – | 3.1 µM (≈ 8.44 µg/mL) | 3.1 µM (≈ 8.44 µg/mL) | 1.6 µM (≈ 4.35 µg/mL) | 3.1 µM (≈ 8.44 µg/mL) | – | 3.1 µM (≈ 8.44 µg/mL) | 3.1 µM (≈ 8.44 µg/mL) | 3.1 µM (≈ 8.44 µg/mL) | 25 µM (≈ 68 µg/mL) | –
4 | CC[C@H](C)[C@H](NC(=O)[C@H](CCCCN)NC(=O)[C@H](Cc1ccccc1)NC(=O)[C@H](CC(C)C)NC(=O)[C@@H]1CCCN1C(=O)[C@H](CCCCN)NC(=O)[C@H](CCCCN)NC(=O)[C@H](CO)NC(=O)[C@@H](N)CCCCN)C(=O)N[C@@H](C)C(=O)N[C@@H](CCCCN)C(=O)N[C@@H](C)C(=O)N[C@H](C(=O)N[C@@H](CCC(=O)O)C(=O)N[C@@H](CC(N)=O)C(=O)N[C@H](C(=O)N[C@@H](C)C(=O)N[C@H](C(=O)N[C@@H](CC(C)C)C(=O)N[C@@H](C)C(=O)N[C@@H](Cc1ccc(O)cc1)C(=O)N[C@@H](CCCCN)C(N)=O)C(C)C)C(C)C)C(C)C [NCR169C17–38W10,20C12,17/A] (H-KSKKPLFKIAKAVENVAVLAYK-NH2) | – | 6.3 µM (≈ 15.4 µg/mL) | 12.5 µM (≈ 30.6 µg/mL) | 6.3 µM (≈ 15.4 µg/mL) | – | – | – | 6.3 µM (≈ 15.4 µg/mL) | 3.1 µM (≈ 7.58 µg/mL) | – | –
5 | CC[C@H](C)[C@H](NC(=O)[C@H](CCCCN)NC(=O)[C@H](Cc1ccccc1)NC(=O)[C@H](CC(C)C)NC(=O)[C@@H]1CCCN1C(=O)[C@H](CCCCN)NC(=O)[C@H](CCCCN)NC(=O)[C@H](CO)NC(=O)[C@@H](N)CCCCN)C(=O)NC(Cc1c[nH]c2ccc(C)cc12)C(=O)N[C@@H](CCCCN)C(=O)N[C@@H](CO)C(=O)N[C@H](C(=O)N[C@@H](CCC(=O)O)C(=O)N[C@@H](CC(N)=O)C(=O)N[C@H](C(=O)N[C@@H](CO)C(=O)N[C@H](C(=O)N[C@@H](CC(C)C)C(=O)N[C@@H](Cc1c[nH]c2ccccc12)C(=O)N[C@@H](Cc1ccc(O)cc1)C(=O)N[C@@H](CCCCN)C(N)=O)C(C)C)C(C)C)C(C)C (stereo partly shown) [NCR169C17–38C12,17/S-10W^5-Me II] (H-KSKKPLFKI[ξTrp(5-Me)]KSVENVSVLWYK-NH2; N-terminus assumed) | – | 3.1 µM (≈ 8.44 µg/mL) | – | 3.1 µM (≈ 8.44 µg/mL) | 6.3 µM (≈ 17.1 µg/mL) | 3.1 µM (≈ 8.44 µg/mL) | 3.1 µM (≈ 8.44 µg/mL) | 3.1 µM (≈ 8.44 µg/mL) | 3.1 µM (≈ 8.44 µg/mL) | – | 3.1 µM (≈ 8.44 µg/mL)
6 | CC[C@H](C)[C@H](NC(=O)[C@H](CCCCN)NC(=O)[C@H](Cc1ccccc1)NC(=O)[C@H](CC(C)C)NC(=O)[C@@H]1CCCN1C(=O)[C@H](CCCCN)NC(=O)[C@H](CCCCN)NC(=O)[C@H](CO)NC(=O)[C@@H](N)CCCCN)C(=O)NC(Cc1c[nH]c2ccc(C)cc12)C(=O)N[C@@H](CCCCN)C(=O)N[C@@H](CO)C(=O)N[C@H](C(=O)N[C@@H](CCC(=O)O)C(=O)N[C@@H](CC(N)=O)C(=O)N[C@H](C(=O)N[C@@H](CO)C(=O)N[C@H](C(=O)N[C@@H](CC(C)C)C(=O)N[C@@H](Cc1c[nH]c2ccccc12)C(=O)N[C@@H](Cc1ccc(O)cc1)C(=O)N[C@@H](CCCCN)C(N)=O)C(C)C)C(C)C)C(C)C (stereo partly shown) [NCR169C17–38C12,17/S-10W^5-Me I] (H-KSKKPLFKI[ξTrp(5-Me)]KSVENVSVLWYK-NH2; N-terminus assumed) | – | 3.1 µM (≈ 8.44 µg/mL) | – | 3.1 µM (≈ 8.44 µg/mL) | 6.3 µM (≈ 17.1 µg/mL) | 3.1 µM (≈ 8.44 µg/mL) | 3.1 µM (≈ 8.44 µg/mL) | 3.1 µM (≈ 8.44 µg/mL) | 3.1 µM (≈ 8.44 µg/mL) | – | 6.3 µM (≈ 17.1 µg/mL)
7 | CC[C@H](C)[C@H](NC(=O)[C@H](CCCCN)NC(=O)[C@H](Cc1ccccc1)NC(=O)[C@H](CC(C)C)NC(=O)[C@@H]1CCCN1C(=O)[C@H](CCCCN)NC(=O)[C@H](CCCCN)NC(=O)[C@H](CO)NC(=O)[C@@H](N)CCCCN)C(=O)N[C@@H](C)C(=O)N[C@@H](CCCCN)C(=O)N[C@@H](CO)C(=O)N[C@H](C(=O)N[C@@H](CCC(=O)O)C(=O)N[C@@H](CC(N)=O)C(=O)N[C@H](C(=O)N[C@@H](CO)C(=O)N[C@H](C(=O)N[C@@H](CC(C)C)C(=O)N[C@@H](C)C(=O)N[C@@H](Cc1ccc(O)cc1)C(=O)N[C@@H](CCCCN)C(N)=O)C(C)C)C(C)C)C(C)C [NCR169C17–38W10,20/A,C12,17/S] (H-KSKKPLFKIAKSVENVSVLAYK-NH2) | – | 6.3 µM (≈ 15.6 µg/mL) | 12.5 µM (≈ 31 µg/mL) | 6.3 µM (≈ 15.6 µg/mL) | – | 25 µM (≈ 61.9 µg/mL) | 3.1 µM (≈ 7.68 µg/mL) | 6.3 µM (≈ 15.6 µg/mL) | 3.1 µM (≈ 7.68 µg/mL) | – | –
